Data from patent US10385096B2, “Pro-Amb reverse turn restricted bioactive peptide analogues” (Council of Scientific & Industrial Research, priority 2016, dated 2019).

What was measured:
[1] = system: AT2 receptor; details: 3-day treatment, undifferentiated NG108-15 cells; reported by Blankley et al; cited from earlier work
[2] = system: AT2 receptor; assay: neurite outgrowth assay in NG108-15 cells (functional activity at the AT2 receptor); format: cell-based; details: PD 123319 alone (10 μM), 3 days
Description: The functional activity of the analogues of the present invention was evaluated at the AT2 receptor, applying a neurite outgrowth assay in NG108-15 [108CC15] (ATCC® HB12317™) cells. […] The signaling pathways involve a sustained increase in Rap1/BRaf/p42/p44mapk activity and activation of the nitric oxide/guanylyl cyclase/cGMP pathway. NG108-15 cells were treated in absence or presence of Ang II and PD 123319, an AT2 receptor antagonist. The cells were plated at the initial density of 3.6×10^4 cells/petri dish (35 mm) and were cultured for 3 days in the absence (−) or presence (+) of 100 nM Ang II, 1 μM analogue 3, analogue 2 and analogue 1 alone or in combination with 10 μM antagonist PD 123,319 or 100 nM AngII. After 3 days of treatment, the cells were examined under a phase contrast microscope and micrographs were taken. Cells with at least one neurite longer than a cell body were counted as a positive neurite outgrowth. Antagonistic effect was established through co-incubation with Ang II resulting in reduced Ang II-induced neurite outgrowth, verifying blockage of the AT2 receptor. […] The number of cells with neurites was expressed as the percentage of the total number in the micrographs (at least 260 cells according to the experiment). […]
NG108-15 [108CC15] […] Cells with at least one neurite longer than a cell body were counted as positive for neurite outgrowth. […]

Compound	neurite outgrowth in NG108-15 cells (earlier reported) [1]	cell morphology compared to untreated cells [2]
CGP-42112A	induces neurite outgrowth	–
Cc1cc(Cn2cnc3c2C[C@@H](C(=O)O)N(C(=O)C(c2ccccc2)c2ccccc2)C3)ccc1N(C)C [PD 123319]	–	did not alter the morphology
Asp-Arg-Val-Tyr-Ile-His-Pro-Phe (DRVYIHPF) [Ang II, octapeptide, endogenous substrate for AT1 and AT2 receptors]	induces neurite outgrowth	–
